Where “and” joins values, the source holds several entries; their conditions need not be identical. Equal entries are not always repeated. Where two headings read alike, the source gives them in different places. Each block holds one compound with its values, some of them ahead of it.
Columns and labels:
AKT1 = AKT1 (Homo sapiens (Human), UniProt P31749); assay: Reaction Biology HotSpot kinase assay; type: biochemical; details: 500 nM compound; for inhibition at 0.5 µM: read-out: Percentage kinase inhibition AKT1
In short: (§1)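 Each compound was tested at 500 nM, with 33P incorporation from ATP (100 μM final, including [γ-33P]ATP) measured by P81 paper capture after a 2 h room-temperature reaction.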

AKT2 = AKT2 (Homo sapiens (Human), UniProt P31751); assay: Reaction Biology HotSpot kinase assay; type: biochemical; details: 500 nM compound; for inhibition at 0.5 µM: read-out: Percentage kinase inhibition AKT2
In short: (§2)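 Radiometric HotSpot format: compound at single dose 500 nM preincubated 20 min with kinase and substrate in pH 7.5 HEPES buffer (MgCl2, EGTA, Brij35, BSA, Na3VO4, DTT, 1% DMSO). Reaction with 100 μM total ATP including [γ-33P]ATP, 2 h RT, P81 filter capture; values as % remaining activity versus DMSO.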

CDK2/cyclin A = CDK2/cyclin A (Homo sapiens (Human), UniProt P24941); assay: Reaction Biology HotSpot kinase assay; type: biochemical; details: 500 nM compound; for inhibition at 0.5 µM: read-out: Percentage kinase inhibition CDK2/cyclin A
In short: as §1

CDK6/cyclin D3 = CDK6/cyclin D3 (Homo sapiens (Human), UniProt Q00534); assay: Reaction Biology HotSpot kinase assay; type: biochemical; details: 500 nM compound; for inhibition at 0.5 µM: read-out: Percentage kinase inhibition CDK6/cyclin D3
In short: as §2

CDK9/cyclin K = CDK9/cyclin K (Homo sapiens (Human), UniProt P50750); assay: Reaction Biology HotSpot kinase assay; type: biochemical; details: 500 nM compound; for inhibition at 0.5 µM: read-out: Percentage kinase inhibition CDK9/cyclin K
In short: as §2

CDK9/cyclin T1 = CDK9/cyclin T1 (Homo sapiens (Human), UniProt P50750); assay: Reaction Biology HotSpot kinase assay; type: biochemical; details: 500 nM compound; for inhibition at 0.5 µM: read-out: Percentage kinase inhibition CDK9/cyclin T1
In short: as §2

FER = FER (Homo sapiens (Human), UniProt P16591); assay: Reaction Biology HotSpot kinase assay; type: biochemical; details: 500 nM compound; for inhibition at 0.5 µM: read-out: Percentage kinase inhibition FER
In short: as §2

FYN = FYN (Homo sapiens (Human), UniProt P06241); assay: Reaction Biology HotSpot kinase assay; type: biochemical; details: 500 nM compound; for inhibition at 0.5 µM: read-out: Percentage kinase inhibition FYN
In short: as §2

ITK = ITK (Homo sapiens (Human), UniProt Q08881); assay: Reaction Biology HotSpot kinase assay; type: biochemical; details: 500 nM compound; for inhibition at 0.5 µM: read-out: Percentage kinase inhibition ITK
In short: as §2

JNK1 = JNK1 (Homo sapiens (Human), UniProt P45983); assay: Reaction Biology HotSpot kinase assay; type: biochemical; details: 500 nM compound; for inhibition at 0.5 µM: read-out: Percentage kinase inhibition JNK1
In short: as §2

LYN = LYN (Homo sapiens (Human), UniProt P07948); assay: Reaction Biology HotSpot kinase assay; type: biochemical; details: 500 nM compound; for inhibition at 0.5 µM: read-out: Percentage kinase inhibition LYN
In short: as §2

MEK1 = MEK1 (Homo sapiens (Human), UniProt Q02750); assay: Reaction Biology HotSpot kinase assay; type: biochemical; details: 500 nM compound; for inhibition at 0.5 µM: read-out: Percentage kinase inhibition MEK1
In short: as §2

MEKK1 = MEKK1 (Homo sapiens (Human), UniProt Q13233); assay: Reaction Biology HotSpot kinase assay; type: biochemical; details: 500 nM compound; for inhibition at 0.5 µM: read-out: Percentage kinase inhibition MEKK1
In short: as §2

MELK = MELK (Homo sapiens (Human), UniProt Q14680); assay: Reaction Biology HotSpot kinase assay; type: biochemical; details: 500 nM compound; for inhibition at 0.5 µM: read-out: Percentage kinase inhibition MELK
In short: as §2

MUSK = MUSK (Homo sapiens (Human), UniProt O15146); assay: Reaction Biology HotSpot kinase assay; type: biochemical; details: 500 nM compound; for inhibition at 0.5 µM: read-out: Percentage kinase inhibition MUSK
In short: as §2

PKD2/PRKD2 = PKD2/PRKD2 (Homo sapiens (Human), UniProt Q9BZL6); assay: Reaction Biology HotSpot kinase assay; type: biochemical; details: 500 nM compound; for inhibition at 0.5 µM: read-out: Percentage kinase inhibition PKD2/PRKD2
In short: as §2

RON/MST1R = RON/MST1R (Homo sapiens (Human), UniProt Q04912); assay: Reaction Biology HotSpot kinase assay; type: biochemical; details: 500 nM compound; for inhibition at 0.5 µM: read-out: Percentage kinase inhibition RON/MST1R
In short: as §2

SYK = SYK (Homo sapiens (Human), UniProt P43405); assay: Reaction Biology HotSpot kinase assay; type: biochemical; details: 500 nM compound; for inhibition at 0.5 µM: read-out: Percentage kinase inhibition SYK
In short: as §2

c-MER = c-MER (Homo sapiens (Human), UniProt Q12866); assay: Reaction Biology HotSpot kinase assay; type: biochemical; details: 500 nM compound; for inhibition at 0.5 µM: read-out: Percentage kinase inhibition c-MER
In short: as §2

c-Src = c-Src (Homo sapiens (Human), UniProt P12931); assay: Reaction Biology HotSpot kinase assay; type: biochemical; details: 500 nM compound; for inhibition at 0.5 µM: read-out: Percentage kinase inhibition c-Src
In short: as §2

c-kit = c-kit (Homo sapiens (Human), UniProt P10721); assay: Reaction Biology HotSpot kinase assay; type: biochemical; details: 500 nM compound, 100 μM radiolabeled ATP
In short: as §1

MV4-11 = assay: IC50 determination (proliferation assay, CellTiter-Blue); type: cell-based
In short: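 MOLM14 and MV4-11 cells seeded about 18 h before compound addition (DMSO-diluted), then 72 h exposure.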

FLT3 (D835V) = FLT3 (D835V) (Homo sapiens (Human), UniProt P36888, D835V); assay: DiscoverX Kd Elect binding
From the text: (§3) Although the current drugs on the market or in clinical trials are relatively successful in killing the AML leukemia cells, they currently are unable to deal with secondary mutations that occur after TKI treatment, such as FLT3 ([…]).

FLT3 (ITD) = FLT3 (ITD) (Homo sapiens, UniProt P36888, ITD); assay: DiscoverX Kd Elect binding; details: Kd FLT3 (ITD)
From the text: as §3

ABL1 phosphorylated = ABL1 phosphorylated (Homo sapiens (Human), UniProt P00519); assay: DiscoverX Kd Elect binding
ABL1 non-phosphorylated = ABL1 non-phosphorylated (Homo sapiens (Human), UniProt P00519); assay: DiscoverX Kd Elect binding
NCI H1703 (NSCLC) = assay: Activity against lung cancer cell line; type: cell-based; details: Homo sapiens, NCI-H1703

Chain of ITK (Q08881 whole entry): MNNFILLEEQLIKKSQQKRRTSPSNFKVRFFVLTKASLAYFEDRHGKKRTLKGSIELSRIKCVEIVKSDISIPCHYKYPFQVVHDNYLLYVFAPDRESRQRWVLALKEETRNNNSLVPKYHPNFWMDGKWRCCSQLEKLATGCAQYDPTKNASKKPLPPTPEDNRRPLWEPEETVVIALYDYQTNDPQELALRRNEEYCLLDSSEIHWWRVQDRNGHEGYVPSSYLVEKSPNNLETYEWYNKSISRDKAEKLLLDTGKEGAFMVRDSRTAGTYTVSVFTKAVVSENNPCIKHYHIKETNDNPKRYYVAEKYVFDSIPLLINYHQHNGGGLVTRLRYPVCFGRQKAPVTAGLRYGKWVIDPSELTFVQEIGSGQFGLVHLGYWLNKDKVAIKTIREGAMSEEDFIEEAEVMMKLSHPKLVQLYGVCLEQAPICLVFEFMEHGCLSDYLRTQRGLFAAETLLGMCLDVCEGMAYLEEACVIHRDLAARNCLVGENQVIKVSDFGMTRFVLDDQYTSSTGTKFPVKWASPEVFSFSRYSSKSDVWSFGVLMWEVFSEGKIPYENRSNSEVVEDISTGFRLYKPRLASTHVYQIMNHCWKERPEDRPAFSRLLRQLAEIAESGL
Chain of MUSK (O15146 24-869): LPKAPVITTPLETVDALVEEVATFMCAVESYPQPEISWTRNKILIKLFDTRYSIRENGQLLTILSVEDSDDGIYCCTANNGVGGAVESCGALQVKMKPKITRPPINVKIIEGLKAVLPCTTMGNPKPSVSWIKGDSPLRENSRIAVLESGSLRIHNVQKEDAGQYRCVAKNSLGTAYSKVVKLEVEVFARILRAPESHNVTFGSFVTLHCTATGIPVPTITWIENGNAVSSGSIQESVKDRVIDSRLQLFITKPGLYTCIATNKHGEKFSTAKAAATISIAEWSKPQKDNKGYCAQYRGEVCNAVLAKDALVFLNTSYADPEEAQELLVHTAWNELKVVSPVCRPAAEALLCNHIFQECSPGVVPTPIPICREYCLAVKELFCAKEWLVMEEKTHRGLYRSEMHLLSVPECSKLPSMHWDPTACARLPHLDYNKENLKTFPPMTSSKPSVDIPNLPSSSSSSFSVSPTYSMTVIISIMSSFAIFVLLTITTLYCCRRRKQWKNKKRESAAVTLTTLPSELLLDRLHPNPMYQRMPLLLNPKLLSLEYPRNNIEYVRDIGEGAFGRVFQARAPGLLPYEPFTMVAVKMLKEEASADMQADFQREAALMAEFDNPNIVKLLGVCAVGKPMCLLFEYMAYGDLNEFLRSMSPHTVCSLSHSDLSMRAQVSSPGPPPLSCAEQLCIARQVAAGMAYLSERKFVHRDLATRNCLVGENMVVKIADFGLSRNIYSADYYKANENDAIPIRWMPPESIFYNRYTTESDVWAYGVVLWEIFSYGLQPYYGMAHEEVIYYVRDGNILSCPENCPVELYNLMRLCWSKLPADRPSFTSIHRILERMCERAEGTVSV
Chain of MEKK1 (Q13233 whole entry): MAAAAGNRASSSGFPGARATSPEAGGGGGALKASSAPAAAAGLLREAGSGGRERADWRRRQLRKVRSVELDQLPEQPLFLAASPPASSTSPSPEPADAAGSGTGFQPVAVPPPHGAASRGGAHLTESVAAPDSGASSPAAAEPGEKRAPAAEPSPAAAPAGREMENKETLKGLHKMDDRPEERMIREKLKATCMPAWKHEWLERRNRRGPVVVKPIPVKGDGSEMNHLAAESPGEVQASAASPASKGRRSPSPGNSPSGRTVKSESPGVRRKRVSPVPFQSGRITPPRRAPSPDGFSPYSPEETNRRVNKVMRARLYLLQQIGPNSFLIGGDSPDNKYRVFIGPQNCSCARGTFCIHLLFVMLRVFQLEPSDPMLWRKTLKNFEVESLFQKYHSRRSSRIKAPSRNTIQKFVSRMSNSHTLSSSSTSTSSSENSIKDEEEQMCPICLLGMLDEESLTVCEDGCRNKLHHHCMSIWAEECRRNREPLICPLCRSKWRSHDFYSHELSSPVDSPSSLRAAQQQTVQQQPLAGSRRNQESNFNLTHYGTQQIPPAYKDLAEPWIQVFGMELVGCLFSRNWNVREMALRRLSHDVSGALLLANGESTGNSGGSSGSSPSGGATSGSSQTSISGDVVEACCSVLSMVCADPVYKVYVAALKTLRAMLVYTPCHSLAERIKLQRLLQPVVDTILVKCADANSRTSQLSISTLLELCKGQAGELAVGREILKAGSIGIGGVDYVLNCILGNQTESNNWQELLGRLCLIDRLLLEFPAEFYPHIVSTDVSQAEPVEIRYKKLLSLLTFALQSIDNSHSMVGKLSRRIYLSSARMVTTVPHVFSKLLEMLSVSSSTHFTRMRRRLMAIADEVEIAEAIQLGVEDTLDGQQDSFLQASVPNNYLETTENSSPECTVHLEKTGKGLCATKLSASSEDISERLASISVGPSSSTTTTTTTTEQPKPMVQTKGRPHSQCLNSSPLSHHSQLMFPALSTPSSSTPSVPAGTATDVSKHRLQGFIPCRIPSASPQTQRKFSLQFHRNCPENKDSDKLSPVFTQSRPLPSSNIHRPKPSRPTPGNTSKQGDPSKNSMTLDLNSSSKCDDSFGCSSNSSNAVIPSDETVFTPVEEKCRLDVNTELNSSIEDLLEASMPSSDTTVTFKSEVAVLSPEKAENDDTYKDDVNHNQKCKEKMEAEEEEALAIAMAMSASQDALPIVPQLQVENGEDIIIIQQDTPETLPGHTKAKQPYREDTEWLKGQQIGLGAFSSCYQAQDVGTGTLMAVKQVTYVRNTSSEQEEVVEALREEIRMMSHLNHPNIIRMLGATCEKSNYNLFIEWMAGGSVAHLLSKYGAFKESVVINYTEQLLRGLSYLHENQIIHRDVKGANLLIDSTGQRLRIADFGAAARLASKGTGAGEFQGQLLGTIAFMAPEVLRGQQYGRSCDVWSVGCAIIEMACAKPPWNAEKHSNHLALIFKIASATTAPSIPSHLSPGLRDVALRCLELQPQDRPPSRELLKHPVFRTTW
Chain of LYN (P07948 whole entry): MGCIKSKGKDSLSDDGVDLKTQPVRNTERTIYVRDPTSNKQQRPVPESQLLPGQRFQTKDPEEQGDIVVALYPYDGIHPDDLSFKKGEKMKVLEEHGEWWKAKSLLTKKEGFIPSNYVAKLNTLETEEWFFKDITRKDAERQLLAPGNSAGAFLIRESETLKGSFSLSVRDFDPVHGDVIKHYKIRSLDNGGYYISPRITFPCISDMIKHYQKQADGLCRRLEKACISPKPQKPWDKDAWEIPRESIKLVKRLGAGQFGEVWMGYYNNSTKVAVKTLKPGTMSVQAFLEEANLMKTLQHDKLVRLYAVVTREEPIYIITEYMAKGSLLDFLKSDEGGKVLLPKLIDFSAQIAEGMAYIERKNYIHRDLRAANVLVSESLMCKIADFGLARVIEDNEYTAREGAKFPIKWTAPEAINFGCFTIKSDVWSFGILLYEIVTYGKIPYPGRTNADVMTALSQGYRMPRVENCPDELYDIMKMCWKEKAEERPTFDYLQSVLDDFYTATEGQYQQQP
Chain of c-kit (P10721 26-976): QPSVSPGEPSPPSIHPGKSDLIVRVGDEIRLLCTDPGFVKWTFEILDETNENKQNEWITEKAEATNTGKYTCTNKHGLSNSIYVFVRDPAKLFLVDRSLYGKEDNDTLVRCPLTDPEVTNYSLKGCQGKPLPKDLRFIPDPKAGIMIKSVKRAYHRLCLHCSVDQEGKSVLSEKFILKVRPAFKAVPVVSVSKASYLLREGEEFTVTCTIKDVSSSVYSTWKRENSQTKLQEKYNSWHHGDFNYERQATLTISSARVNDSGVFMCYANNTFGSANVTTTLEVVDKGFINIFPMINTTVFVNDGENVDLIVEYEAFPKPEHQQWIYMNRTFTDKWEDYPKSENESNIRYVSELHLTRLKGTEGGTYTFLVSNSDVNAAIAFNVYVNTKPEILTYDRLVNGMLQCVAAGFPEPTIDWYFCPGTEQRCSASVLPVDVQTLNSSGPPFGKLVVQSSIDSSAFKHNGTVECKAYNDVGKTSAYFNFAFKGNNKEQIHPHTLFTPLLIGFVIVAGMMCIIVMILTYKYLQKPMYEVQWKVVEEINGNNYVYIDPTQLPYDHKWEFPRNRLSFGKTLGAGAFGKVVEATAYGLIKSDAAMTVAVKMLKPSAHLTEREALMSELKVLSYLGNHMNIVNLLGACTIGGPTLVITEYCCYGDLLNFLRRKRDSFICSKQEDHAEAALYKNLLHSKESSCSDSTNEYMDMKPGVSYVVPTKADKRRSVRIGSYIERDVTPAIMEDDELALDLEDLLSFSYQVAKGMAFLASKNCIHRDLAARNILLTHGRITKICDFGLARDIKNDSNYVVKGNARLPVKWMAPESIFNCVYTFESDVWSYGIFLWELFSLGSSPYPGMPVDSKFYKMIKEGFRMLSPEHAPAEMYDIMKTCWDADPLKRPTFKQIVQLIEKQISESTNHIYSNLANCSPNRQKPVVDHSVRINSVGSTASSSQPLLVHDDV
Chain of MELK (Q14680 whole entry): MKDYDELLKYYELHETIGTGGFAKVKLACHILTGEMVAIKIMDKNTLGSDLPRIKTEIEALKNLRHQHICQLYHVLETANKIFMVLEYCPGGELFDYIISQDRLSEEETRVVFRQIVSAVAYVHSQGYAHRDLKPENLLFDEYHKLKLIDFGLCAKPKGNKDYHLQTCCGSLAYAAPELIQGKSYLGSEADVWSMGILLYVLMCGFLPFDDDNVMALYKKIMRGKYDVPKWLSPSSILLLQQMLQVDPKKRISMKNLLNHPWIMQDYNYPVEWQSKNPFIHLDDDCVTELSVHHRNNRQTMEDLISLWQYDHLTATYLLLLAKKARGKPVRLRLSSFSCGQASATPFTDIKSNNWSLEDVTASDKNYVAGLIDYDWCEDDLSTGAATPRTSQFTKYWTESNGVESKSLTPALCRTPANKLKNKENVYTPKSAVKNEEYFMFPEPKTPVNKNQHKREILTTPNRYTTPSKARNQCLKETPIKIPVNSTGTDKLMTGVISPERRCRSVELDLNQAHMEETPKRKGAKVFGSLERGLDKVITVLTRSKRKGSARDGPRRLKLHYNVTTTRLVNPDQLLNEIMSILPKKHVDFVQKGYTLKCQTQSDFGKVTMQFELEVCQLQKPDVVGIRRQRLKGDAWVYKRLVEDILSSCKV

Compound: CN(C)CC(O)CNC(=O)c1ccc(C#Cc2c(N)ncc3ccc(Cl)cc23)cc1 (stereo not shown) [HSM1702]
- Percentage kinase inhibition AKT1 (AKT1): 13%
- Percentage kinase inhibition AKT2 (AKT2): 18%
- Percentage kinase inhibition CDK2/cyclin A (CDK2/cyclin A): 18%
- Percentage kinase inhibition CDK6/cyclin D3 (CDK6/cyclin D3): 50%
- Percentage kinase inhibition CDK9/cyclin K (CDK9/cyclin K): 53%
- Percentage kinase inhibition CDK9/cyclin T1 (CDK9/cyclin T1): 41%
- Percentage kinase inhibition FER (FER): 0%
- Percentage kinase inhibition FYN (FYN): 16%
- Percentage kinase inhibition ITK (ITK): 0%
- Percentage kinase inhibition JNK1 (JNK1): 0%
- Percentage kinase inhibition LYN (LYN): 6%
- Percentage kinase inhibition MEK1 (MEK1): 0%
- Percentage kinase inhibition MEKK1 (MEKK1): 4%
- Percentage kinase inhibition MELK (MELK): 12%
- Percentage kinase inhibition MUSK (MUSK): 35%
- Percentage kinase inhibition PKD2/PRKD2 (PKD2/PRKD2): 6%
- Percentage kinase inhibition RON/MST1R (RON/MST1R): 0%
- Percentage kinase inhibition SYK (SYK): 4%
- Percentage kinase inhibition c-MER (c-MER): 6%
- Percentage kinase inhibition c-Src (c-Src): 9%
- % inhibition of c-Kit (c-kit): 83%
- IC50 (MV4-11): 71 ± 1.1 nM

Compound: Cc1ccc(C(=O)Nc2ccc(CN3CCN(C)CC3)c(C(F)(F)F)c2)cc1C#Cc1cnc(N)c2ccccc12 [HSN334, 3-((1-aminoisoquinolin-4-yl)ethynyl)-4-methyl-N-(4-((4-methylpiperazin-1-yl)methyl)-3-(trifluoromethyl)phenyl)benzamide]
- inhibition at 0.5 µM (AKT1): 0%
- inhibition at 0.5 µM (c-MER): 0%
- inhibition at 0.5 µM (c-kit): 73%
- Kd (FLT3 (D835V)): 120 nM
- Kd (FLT3 (ITD)): 19 nM
- Kd (ABL1 phosphorylated): 12 nM
- Kd (ABL1 non-phosphorylated): 4.4 nM
- IC50 (MV4-11): 1.38 ± 0.1 nM
- proliferation inhibition in words, MV4-11 / AML (MV4-11): potent proliferation inhibitors
- IC50 (MV4-11; Homo sapiens, MV4-11): < 1 nM
- IC50 (NCI H1703 (NSCLC)): 98 nM

Compound: Cc1ccc(C(=O)Nc2ccc(CN3CCN(C)CC3)c(C(F)(F)F)c2)cc1C#Cc1c(N)ncc2ccc(Cl)cc12 [HSN286]
- inhibition at 0.5 µM (AKT1): 0%
- inhibition at 0.5 µM (AKT2): 3%
- inhibition at 0.5 µM (CDK2/cyclin A): 0%
- inhibition at 0.5 µM (CDK6/cyclin D3): 7%
- inhibition at 0.5 µM (CDK9/cyclin K): 24%
- inhibition at 0.5 µM (CDK9/cyclin T1): 0%
- inhibition at 0.5 µM (FER): 0%
- inhibition at 0.5 µM (FYN): 100%
- inhibition at 0.5 µM (ITK): 0%
- inhibition at 0.5 µM (JNK1): 7%
- inhibition at 0.5 µM (LYN): 98%
- inhibition at 0.5 µM (MEK1): 0%
- inhibition at 0.5 µM (MEKK1): 6%
- inhibition at 0.5 µM (MELK): 27%
- inhibition at 0.5 µM (MUSK): 13%
- inhibition at 0.5 µM (PKD2/PRKD2): 7%
- inhibition at 0.5 µM (RON/MST1R): 0%
- inhibition at 0.5 µM (SYK): 0%
- inhibition at 0.5 µM (c-MER): 0%
- inhibition at 0.5 µM (c-kit): 61%
- Kd (FLT3 (D835V)): 120 nM
- Kd (FLT3 (ITD)): 27.6 nM and 26 nM
- Kd (ABL1 phosphorylated): 7.9 nM
- Kd (ABL1 non-phosphorylated): 7.2 nM
- IC50 (NCI H1703 (NSCLC)): 50 nM

Compound: Cc1ccc(C(=O)Nc2ccc(CN3CCN(C)CC3)c(C(F)(F)F)c2)cc1C#Cc1cnc(N)c2ncccc12 [HSN356, 3-((8-amino-1,7-naphthyridin-5-yl)ethynyl)-4-methyl-N-(4-((4-methylpiperazin-1-yl)methyl)-3-(trifluoromethyl)phenyl)benzamide]
- inhibition at 0.5 µM (AKT1): 0%
- inhibition at 0.5 µM (c-MER): 0%
- inhibition at 0.5 µM (c-kit): 87%
- Kd (FLT3 (D835V)): 19 nM
- Kd (FLT3 (ITD)): 6.7 nM
- Kd (ABL1 phosphorylated): 1.2 nM
- Kd (ABL1 non-phosphorylated): 2.5 nM
- proliferation inhibition in words, MV4-11 / AML (MV4-11): potent proliferation inhibitors
- IC50 (NCI H1703 (NSCLC)): 88 nM

More lines, main results first:

- inhibition at 0.5 µM (AKT1): 0%
- inhibition at 0.5 µM (c-MER): 3%
- inhibition at 0.5 µM (c-Src): 0%
- inhibition at 0.5 µM (c-kit): 31%
- IC50 (MV4-11; Homo sapiens, MV4-11): 721 ± 5.8 nM
Compound: Cc1ccc(C(=O)Nc2ccc(CN3CCN(C)CC3)c(C(F)(F)F)c2)cc1C#Cc1cc(N)nc2ccccc12 [HSN285]
- proliferation inhibition in words, MV4-11 / AML (MV4-11): neither potent inhibitors of FLT3 nor active against MV4-11 or MOLM-14

- inhibition at 0.5 µM (AKT1): 0%
- inhibition at 0.5 µM (AKT2): 0%
- inhibition at 0.5 µM (CDK2/cyclin A): 0%
- inhibition at 0.5 µM (CDK6/cyclin D3): 0%
- inhibition at 0.5 µM (CDK9/cyclin K): 7%
- inhibition at 0.5 µM (CDK9/cyclin T1): 0%
- inhibition at 0.5 µM (FER): 12%
- inhibition at 0.5 µM (FYN): 10%
- inhibition at 0.5 µM (ITK): 1%
- inhibition at 0.5 µM (JNK1): 0%
- inhibition at 0.5 µM (LYN): 69%
- inhibition at 0.5 µM (MEK1): 2%
- inhibition at 0.5 µM (MEKK1): 4%
- inhibition at 0.5 µM (MELK): 0%
- inhibition at 0.5 µM (MUSK): 0%
- inhibition at 0.5 µM (PKD2/PRKD2): 0%
- inhibition at 0.5 µM (RON/MST1R): 0%
- inhibition at 0.5 µM (SYK): 0%
- inhibition at 0.5 µM (c-MER): 0%
- inhibition at 0.5 µM (c-Src): 30%
- IC50 (MV4-11; Homo sapiens, MV4-11): 135 ± 5.87 nM
Compound: COc1cc2nc(N)nc(C#Cc3cc(C(=O)Nc4ccc(CN5CCN(C)CC5)c(C(F)(F)F)c4)ccc3C)c2cc1OC [HSN325]

Reference: patent US20250084039A1, “4-SUBSTITUTED AMINOISOQUINOLINE DERIVATIVES” (Purdue Research Foundation, priority 2016, published 2025)
